Results reported in PMC8318231, “Rate-of-Kill (RoK) assays to triage large compound sets for Chagas disease drug discovery: Application to GSK Chagas Box” (PLoS Neglected Tropical Diseases, 2021).

Key:
[1] = system: T. cruzi Tulahuen trypomastigotes; test: T. cruzi trypomastigote assay (Cell Titer-Glo viability, ATP luminescence); assay type: cell-based, Trypanosoma cruzi; conditions: for Trypomastigotes pIC50 48 hours: 48 hours incubation; for Trypomastigotes pIC50 48 hours / Trypomastigotes pIC50 72 hours: pIC50 = -log10 IC50 in molar units; for Trypomastigotes pIC50 72 hours: 72 hours incubation; for 48 pIC50 / 72 pIC50: trypomastigote assay; for 48 pIC50: 48 h; for 72 pIC50: 72 h
Procedure: T. cruzi Tulahuen trypomastigotes obtained from the supernatants of LLC-MK2 infected cultures in a 225 cm^2 T-Flasks harvested between days 5 and 8 of infection. Trypomastigotes (5 × 10^4 per well) in 50 μl of DMEM/ 2% FBS were dispensed into white 384 plates (Greiner) pre-stamped with 250 nl compound a single-shot final concentration of 5 μM, or in dose response. […] Cell Titer-Glo cell viability solution (Promega) was added to each well (50 μL) incubated at room temperature for 10 min and luminescence read by Envision plate reader (Perkin Elmer). This assay quantifies the amount of ATP present which is directly proportional to the number of metabolically active cells. All data were normalised (100% effect control for no cells and 0% effect control for DMSO). This assay was adapted from MacLean et al., 2018 [22].

TcCYP51 = conditions: formerly reported; cited from earlier work

| SMILES | Trypomastigotes pIC50 48 hours [1] | Trypomastigotes pIC50 72 hours [1] | 48 pIC50 ([1]; figure 1A) | 72 pIC50 ([1]; figure 1A) | 72 pIC50 ([1]; figure 1B) | CYP51 pIC50 (TcCYP51) |
| --- | --- | --- | --- | --- | --- | --- |
| CC1=NN(C(=O)CCn2cnc([N+](=O)[O-])n2)C(O)(C(F)(F)F)C1 (stereo not drawn) [TCMDC-143157] | < 4.3 | < 4.3 | < 4.3 | < 4.3 | < 4.3 | < 4 |
| Cc1ccc2ccc(C(Nc3ccccn3)c3cccnc3)c(O)c2n1 (stereo not drawn) [TCMDC-143308] | 5.7 | 5.4 | – | – | – | 7.3 |
| Cc1cccc(NS(=O)(=O)c2ccc3c(c2)C(=O)c2cc(S(=O)(=O)Nc4cccc(C)c4C)ccc2-3)c1C [TCMDC-143615] | 5 | 4.8 | – | – | – | < 4 |
| Cn1nc([N+](=O)[O-])nc1Oc1ccc(C(=O)c2ccccc2)cc1 [TCMDC-143126] | 6 | 6.1 | – | – | – | < 4 |
| O=C(c1cnn(-c2ccccc2)n1)N1CCCC(n2ccnc2)C1 (stereo not drawn) [TCMDC-143492] | < 4.3 | < 4.3 | < 4.3 | < 4.3 | < 4.3 | 7.1 |
| O=C1CN(C2CCCc3c(OCc4ccncc4)cccc32)C(=O)N1C1CCCCC1 (stereo not drawn) [TCMDC-143613] | < 4.3 | < 4.3 | < 4.3 | < 4.3 | < 4.3 | 7.7 |
| N#Cc1nc(C=Cc2ccccc2)oc1NCc1cccnc1 [TCMDC-143120] | 4.5 | < 4.3 | – | – | – | – |
| O=S(=O)(NCC(c1cccnc1)N1CCN(c2ccccc2F)CC1)c1ccc(F)cc1 (stereo not drawn) [TCMDC-143142] | < 4.3 | < 4.3 | < 4.3 | < 4.3 | < 4.3 | 7.1 |
| COc1ccc([N+](=O)[O-])cc1NC(=O)Nc1cccc(Cl)c1 [TCMDC-143528] | 5.6 | < 4.3 | – | – | – | < 4 |
| O=C(NCC(c1cccnc1)N1CCc2ccccc2C1)C(=O)Nc1cccc(Cl)c1 (stereo not drawn) [TCMDC-143329] | 4.8 | 4.8 | 4.8 | 4.8 | 4.8 | 7.2 |
| O=C(Cn1cnc([N+](=O)[O-])n1)Nc1ccc(Cl)cc1C(=O)c1ccccc1 [TCMDC-143616] | 6 | 6 | 6 | 6 | 6 | 5 |
| CCC(c1ccc(F)cc1)n1cncc1-c1cnn(C)c1 (stereo not drawn) [TCMDC-143416] | < 4.3 | < 4.3 | < 4.3 | < 4.3 | < 4.3 | 7.1 |
| COc1ccc2nc(N(Cc3cccnc3)C(=O)C3CCC3)sc2c1 [TCMDC-143437] | < 4.3 | < 4.3 | < 4.3 | < 4.3 | < 4.3 | 7.2 |
| COc1ccc2nccc([C@H](O)CN3CC[C@H](NC(=O)c4ccc(Br)cc4)[C@@H](O)C3)c2n1 [TCMDC-143527] | < 4.3 | < 4.3 | < 4.3 | < 4.3 | < 4.3 | 5.2 |
| Cc1ccc(CNC2CCN(C[C@@H]3Cn4c(=O)ccc5ccc(=O)n3c54)CC2)cc1F [TCMDC-143403] | < 4.3 | < 4.3 | < 4.3 | < 4.3 | < 4.3 | < 4 |
| Cn1nc([N+](=O)[O-])nc1N1CCCCC1 [TCMDC-143088] | < 4.3 | < 4.3 | < 4.3 | < 4.3 | < 4.3 | < 4 |
| CN(Cc1nnnn1C1CCN(Cc2ccc(-n3ccnc3)cc2)CC1)c1ccc(F)cc1F [TCMDC-143321] | – | – | – | – | – | 6.9 |
| Cl.Cl.NC(=O)c1ccc(-c2cccc(OCCN3CCN(C4CCCCC4)CC3)c2)cc1 [TCMDC-143598] | < 4.3 | < 4.3 | < 4.3 | < 4.3 | < 4.3 | 4.4 |
| O=C(CCCn1cnc([N+](=O)[O-])n1)Nc1cccc(Cl)c1 [TCMDC-143186] | 6 | 5.9 | – | – | – | 4.3 |
